Results taken from patent US10005735B2, “Inhibitors of RPN11” (California Institute of Technology, priority 2015, dated 2018).

What was measured:
Rpn11 [1] = target: T1, Rpn11 (Homo sapiens (Human), UniProt O00487); test: Rpn11 activity assay (fluorescence polarization, Ub4-pepOG cleavage by 26S proteasome); assay type: biochemical; details: for Rpn11 assay activity (in words): screening, compared with 8TQ
Source text: Candidate compounds according to embodiments of the present invention were synthesized as described herein. […] In brief, this Rpn11 bioassay employs a fluorescent polarization readout based on the ability of the 26S proteasome to cleave the protein substrate including four tandem ubiquitin proteins fused to a peptide having a unique cysteine labeled with a fluorophore. Cleavage of this substrate by Rpn11 at the junction between the fourth ubiquitin and the peptide, releases the low molecular weight fluorescent peptide. Accordingly, inhibition of fluorescence correlates with inhibition of Rpn11. Inhibition is reported as the half maximal inhibitory concentration (IC50) for the candidate compound.
Rpn11 Activity Assay. […] In brief, in order to measure the Rpn11 activity, a synthetic peptide substrate, termed Ub4-pepOG, was engineered. […] Peptide substrate Ub4-pepOG consists of only 30 amino acids and therefore the decrease of polarization is mainly from deubiquitination but not the proteolysis of the peptide. Fluorescence polarization assay was performed in a low-volume 384 well solid black plate where the components are added in the follow sequence: 1) 5 μl compound in 3% DMSO or 3% DMSO control 2) 5 μl 26S proteasome (Enzo Life Sciences Inc, NY). […] Fluorescence polarization is measured using a PHERAstar (BMG labtech, Ortenberg, Germany) plate reader with excitation of 480 nm and emission of 520 nm filter set. […] Rpn11 activity was normalized to DMSO control and fitted using does-response curve.

AMSH = AMSH (Homo sapiens (Human), UniProt O95630); test: AMSH activity assay (DiUb^K63TAMRA cleavage, fluorescence); assay type: biochemical; details: Table 2
Source text: AMSH Activity Assay. AMSH is known to selectively cleave ubiquitin chains in which the ubiquitins are joined via K63 of the proximal ubiquitin linked by an isopeptide bond to the carboxy terminus of the distal ubiquitin. […] In brief, DiUb^K63TAMRA was labeled with quench pairs TAMRA/QXL.

Ub^G76V-GFP = test: Reporter degradation assay in Hela cells expressing Ub^G76V-GFP; assay type: cell-based; details: Homo sapiens, after MG132 removal, cycloheximide chase
Procedure: Characterization of the Compound Activity in Cells. […] After 4 hours, MG132 was removed and a cycloheximide (CHX) chase was initiated +/− different concentrations of test compound and the rate of reporter degradation was evaluated by monitoring GFP fluorescence by high throughput microscopy. The rate of fluorescence decrease was normalized to DMSO control and analyzed using does-response equation.

Rpn11 [2] = target: T1, Rpn11; test: Rpn11 activity assay (fluorescence polarization, Ub4-pepOG cleavage by 26S proteasome); assay type: biochemical; details: does not inhibit Csn5 or AMSH with the same potency as Rpn11
Csn5 = Csn5 (Homo sapiens (Human), UniProt Q92905); test: Csn5 activity assay (fluorescence polarization, SCF^skp2-Nedd8OG, COP9 Signalosome Complex); assay type: biochemical; details: Table 2
Procedure: Csn5 Activity Assay. […] In brief, a fluorescent substrate termed SCF^skp2-Nedd8OG was produced to measure CSN5 activity in vitro. This assay measures the decrease in fluorescence polarization due to the decrease in apparent molecular weight of Oregon Green (OG) fluorophore (from the ˜175 kDa substrate to ˜9 kDa Nedd8OG) as a result of Csn5-mediated cleavage of the isopeptide bond that links Nedd8OG to SCF^Skp2. The assay was performed in a low-volume 384 well solid black plate comprising equal volumes of compound, substrate (SCF^skp2-Need8OG) and enzyme (purified COP9 Signalosome Complex, CSN). Fluorescence polarization was recorded using the same setting as for the Rpn11 activity assay.

[3] = Table 2, 1 mM DTT in assay reduces disulfides to monomeric active species
[4] = Table 1, metal binding pharmacophore fragments

Chain of AMSH (O95630 whole entry): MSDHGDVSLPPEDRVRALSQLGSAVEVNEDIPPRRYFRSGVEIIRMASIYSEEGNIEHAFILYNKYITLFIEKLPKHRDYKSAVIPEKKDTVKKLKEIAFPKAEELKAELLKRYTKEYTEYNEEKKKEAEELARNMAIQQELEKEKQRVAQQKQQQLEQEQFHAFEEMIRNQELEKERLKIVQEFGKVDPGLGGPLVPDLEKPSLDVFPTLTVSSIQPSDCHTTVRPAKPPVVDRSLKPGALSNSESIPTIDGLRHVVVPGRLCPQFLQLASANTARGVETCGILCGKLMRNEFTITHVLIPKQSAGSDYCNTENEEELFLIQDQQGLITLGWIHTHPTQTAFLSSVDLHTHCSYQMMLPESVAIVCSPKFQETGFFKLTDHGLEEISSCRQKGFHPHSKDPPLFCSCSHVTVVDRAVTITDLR
T1 sequence (O00487 whole entry, looked up, the tested form may be a part): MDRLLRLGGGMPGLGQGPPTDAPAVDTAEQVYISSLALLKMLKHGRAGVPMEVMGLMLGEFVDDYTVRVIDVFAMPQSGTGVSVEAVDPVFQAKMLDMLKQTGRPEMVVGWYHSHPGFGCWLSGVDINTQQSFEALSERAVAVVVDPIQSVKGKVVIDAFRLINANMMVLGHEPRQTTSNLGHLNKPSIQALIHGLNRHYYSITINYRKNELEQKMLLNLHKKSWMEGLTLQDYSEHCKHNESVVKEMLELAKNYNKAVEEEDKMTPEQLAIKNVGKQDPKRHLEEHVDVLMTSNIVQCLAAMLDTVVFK

Row | Rpn11 assay activity (in words) (Rpn11 [1]) | IC50 (Rpn11 [1]; [4]) | Structure (SMILES) | IC50 (AMSH) | IC50 (Ub^G76V-GFP) | specificity for Rpn11 versus Csn5 and/or AMSH (in words) (Rpn11 [2]) | IC50 (Csn5) | IC50 (Rpn11 [1]; [3])
1 | less active than 8TQ |  | O=C(NCc1cccs1)c1ccc2cccc(SSc3cccc4ccc(C(=O)NCc5cccs5)nc34)c2n1 [8,8′-Disulfanediylbis(N-(thiophen-2-ylmethyl)quinoline-2-carboxamide)] |  |  |  |  | 
2 | less active than 8TQ |  | O=C(NCc1ccccc1)c1ccc2cccc(SSc3cccc4ccc(C(=O)NCc5ccccc5)nc34)c2n1 [8,8′-Disulfanediylbis(N-benzylquinoline-2-carboxamide)] |  |  |  |  | 
3 |  |  | NC(=O)c1cnc2c(SSc3cccc4cc(C(N)=O)cnc34)cccc2c1 [Compound 1, 8,8′-Disulfanediylbis(quinoline-3-carboxamide)] | 1200 nM | 1.2 µM | specific inhibitors of Rpn11 | 15 µM | 1000 nM
4 |  |  | CNC(=O)c1cnc2c(SSc3cccc4cc(C(=O)NC)cnc34)cccc2c1 [Compound 2, 8,8′-Disulfanediylbis(N-methylquinoline-3-carboxamide)] | 4800 nM |  |  | 68 µM | 
5 |  |  | O=C(Nc1nccs1)c1cnc2c(SSc3cccc4cc(C(=O)Nc5nccs5)cnc34)cccc2c1 [Compound 5, 8,8′-Disulfanediylbis(N-(thiazol-2-yl)quinoline-3-carboxamide)] | 3300 nM |  | specific inhibitors of Rpn11 | 32 µM | 
6 |  |  | O=C(NCC1CCCO1)c1cnc2c(SSc3cccc4cc(C(=O)NCC5CCCO5)cnc34)cccc2c1 (stereo not shown) [Compound 6, 8,8′-Disulfanediylbis(N-((tetrahydrofuran-2-yl)methyl)quinoline-3-carboxamide)] | 6800 nM |  |  | 41.3 µM | 4600 nM
7 |  |  | O=C(NCc1ccco1)c1cnc2c(SSc3cccc4cc(C(=O)NCc5ccco5)cnc34)cccc2c1 [Compound 7, 8,8′-Disulfanediylbis(N-(furan-2-ylmethyl)quinoline-3-carboxamide)] | 900 nM |  |  | 0.2 µM | 900 nM
8 |  |  | O=C(NCc1cccs1)c1cnc2c(SSc3cccc4cc(C(=O)NCc5cccs5)cnc34)cccc2c1 [Compound 8, 8,8′-Disulfanediylbis(N-(thiophen-2-ylmethyl)quinoline-3-carboxamide)] | 1300 nM |  |  | 16 µM | 800 nM
9 | highly potent fragment | 2800 ± 350 nM | Sc1cccc2cccnc12 [Compound 8TQ, 8-thioquinoline, reference compound] |  |  |  |  | 
10 |  | 15000 nM | Sc1ccnc2cccnc12 [Compound 8e, 1,5-Naphthyridine-4-thiol] |  |  |  |  | 
11 |  |  | O=C(NCc1nccs1)c1cnc2c(SSc3cccc4cc(C(=O)NCc5nccs5)cnc34)cccc2c1 [Compound 9, 8,8′-Disulfanediylbis(N-(thiazol-2-ylmethyl)quinoline-3-carboxamide)] | 7800 nM |  | specific inhibitors of Rpn11 | 23 µM | 
12 | less active than 8TQ |  | Cc1ccc2cccc(S)c2n1 [Compound 9c, 2-Methylquinoline-8-thiol] |  |  |  |  | 
13 |  |  | O=C(NCCc1ccco1)c1cnc2c(SSc3cccc4cc(C(=O)NCCc5ccco5)cnc34)cccc2c1 [Compound 10, 8,8′-Disulfanediylbis(N-(2-(furan-2-yl)ethyl)quinoline-3-carboxamide)] | 1700 nM | 1.4 µM |  | 6.9 µM | 
14 |  |  | O=C(NCCc1cccs1)c1cnc2c(SSc3cccc4cc(C(=O)NCCc5cccs5)cnc34)cccc2c1 [Compound 11, 8,8′-Disulfanediylbis(N-(2-(thiophen-2-yl)ethyl)quinoline-3-carboxamide)] | 1300 nM |  | specific inhibitors of Rpn11 | 4 µM | 300 nM
15 |  |  | O=C(NCCc1nccs1)c1cnc2c(SSc3cccc4cc(C(=O)NCCc5nccs5)cnc34)cccc2c1 [Compound 12, 8,8′-Disulfanediylbis(N-(2-(thiazol-2-yl)ethyl)quinoline-3-carboxamide)] |  | 0.57 µM | specific inhibitors of Rpn11 | 30 µM | 
16 |  |  | O=C(NCc1ccccn1)c1cnc2c(SSc3cccc4cc(C(=O)NCc5ccccn5)cnc34)cccc2c1 [Compound 13, 8,8′-Disulfanediylbis(N-(pyridin-2-ylmethyl)quinoline-3-carboxamide)] | 16700 nM | > 10 µM |  | 56.7 µM | 3900 nM
17 |  |  | O=C(NCc1cccnc1)c1cnc2c(SSc3cccc4cc(C(=O)NCc5cccnc5)cnc34)cccc2c1 [Compound 14, 8,8′-Disulfanediylbis(N-(pyridin-3-ylmethyl)quinoline-3-carboxamide)] | 3520 nM | > 10 µM |  | 128 µM | 3100 nM
18 | less active than 8TQ |  | O=C(O)c1ccc2cccc(SSc3cccc4ccc(C(=O)O)nc34)c2n1 [Compound 14b, 8,8′-Disulfanediylbis(quinoline-2-carboxylic acid)] |  |  |  |  | 
19 |  |  | O=C(NCc1ccccc1)c1cnc2c(SSc3cccc4cc(C(=O)NCc5ccccc5)cnc34)cccc2c1 [Compound 16, 8,8′-Disulfanediylbis(N-benzylquinoline-3-carboxamide)] | 15000 nM | > 10 µM |  | 11 µM | 1100 nM
20 |  |  | O=C(NCc1ccc(F)cc1)c1cnc2c(SSc3cccc4cc(C(=O)NCc5ccc(F)cc5)cnc34)cccc2c1 [Compound 17, 8,8′-Disulfanediylbis(N-(4-fluorobenzyl)quinoline-3-carboxamide)] | 850 nM | > 10 µM | specific inhibitors of Rpn11 | 18 µM | 
21 |  |  | COc1ccc(CNC(=O)c2cnc3c(SSc4cccc5cc(C(=O)NCc6ccc(OC)cc6)cnc45)cccc3c2)cc1 [Compound 19, 8,8′-Disulfanediylbis(N-(4-methoxybenzyl)quinoline-3-carboxamide)] | 600 nM | > 10 µM | specific inhibitors of Rpn11 | 0.5 µM | 
22 |  |  | O=C(NCc1ccc2c(c1)OCO2)c1cnc2c(SSc3cccc4cc(C(=O)NCc5ccc6c(c5)OCO6)cnc34)cccc2c1 [Compound 20, 8,8′-Disulfanediylbis(N-(benzo[d][1,3]dioxol-5-ylmethyl)quinoline-3-carboxamide)] |  | > 10 µM |  | 7 µM | 900 nM
23 |  |  | O=C(NCc1ccc(N2CCOCC2)cc1)c1cnc2c(SSc3cccc4cc(C(=O)NCc5ccc(N6CCOCC6)cc5)cnc34)cccc2c1 [Compound 21, 8,8′-Disulfanediylbis(N-(4-morpholinobenzyl)quinoline-3-carboxamide)] |  | > 10 µM |  |  | 800 nM
24 |  |  | O=C(NCCN1CCOCC1)c1cnc2c(SSc3cccc4cc(C(=O)NCCN5CCOCC5)cnc34)cccc2c1 [Compound 22, 8,8′-Disulfanediylbis(N-(2-morpholinoethyl)quinoline-3-carboxamide)] | 25400 nM | > 10 µM |  | 99 µM | 6400 nM
25 |  |  | O=C(CCCC[C@@H]1SC[C@@H]2NC(=O)N[C@@H]21)NCCOCCOCCOCCNC(=O)c1cnc2c(S)cccc2c1 [Compound 32] | 400 nM | 4.1 µM |  | 13.8 µM | 400 nM
26 | less active than 8TQ |  | COC(=O)c1ccc2cccc(SSc3cccc4ccc(C(=O)OC)nc34)c2n1 [Dimethyl 8,8′-disulfanediylbis(quinoline-2-carboxylate)] |  |  |  |  | 
27 |  | > 100000 nM | Sc1cccc2ccccc12 [reference compound] |  |  |  |  | 
28 |  | > 100000 nM | CSc1cccc2cccnc12 [reference compound] |  |  |  |  | 
29 |  | > 100000 nM | Cc1cccc2cccnc12 [reference compound] |  |  |  |  | 
30 |  | > 100000 nM | Sc1cccc2ncccc12 [reference compound] |  |  |  |  | 

Row | Structure (SMILES) | Rpn11 assay activity (in words) (Rpn11 [1]) | IC50 (Rpn11 [1]; [4]) | IC50 (AMSH) | IC50 (Ub^G76V-GFP) | specificity for Rpn11 versus Csn5 and/or AMSH (in words) (Rpn11 [2]) | IC50 (Csn5) | IC50 (Rpn11 [1]; [3])
31 | Nc1cccc2cccnc12 [reference compound] |  | > 100000 nM |  |  |  |  | 
32 | Oc1cccc2cccnc12 [reference compound] |  | > 100000 nM |  |  |  |  | 
